Test results from US10670605B2, “Cysteine reactive probes and uses thereof” (The Scripps Research Institute, priority 2015, dated 2020).

What was measured:
Test in all cases: Competitive isoTOP-ABPP in situ (fragment-treated cells)
Format in all cases: cell-based
[1] = target: T1, cysteines in MDA-MB-231 and Ramos cells (Homo sapiens, UniProt Q9NRG0)
T1 sequence (Q9NRG0 1-131): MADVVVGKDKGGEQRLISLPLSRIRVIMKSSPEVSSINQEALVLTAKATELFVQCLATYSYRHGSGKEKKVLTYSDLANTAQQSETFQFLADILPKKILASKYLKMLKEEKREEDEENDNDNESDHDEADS

[2] = target: T2, cysteines in MDA-MB-231 and Ramos cells (Homo sapiens, UniProt P46734)
T2 sequence (P46734 1-347): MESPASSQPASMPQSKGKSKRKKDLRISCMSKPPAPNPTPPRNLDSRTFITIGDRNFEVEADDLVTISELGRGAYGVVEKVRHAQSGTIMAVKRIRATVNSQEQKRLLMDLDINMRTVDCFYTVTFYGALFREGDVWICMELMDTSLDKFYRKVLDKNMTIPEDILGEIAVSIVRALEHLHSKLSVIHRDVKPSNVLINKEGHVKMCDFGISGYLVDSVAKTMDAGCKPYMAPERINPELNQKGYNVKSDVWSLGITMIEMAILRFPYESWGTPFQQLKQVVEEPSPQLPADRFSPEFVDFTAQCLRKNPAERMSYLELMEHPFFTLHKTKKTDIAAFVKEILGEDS

[3] = target: cysteines in MDA-MB-231 and Ramos cells (Homo sapiens, UniProt Q9BUH6)
Sequence of cysteines in MDA-MB-231 and Ramos cells (Homo sapiens, UniProt Q9BUH6) (Q9BUH6 whole entry): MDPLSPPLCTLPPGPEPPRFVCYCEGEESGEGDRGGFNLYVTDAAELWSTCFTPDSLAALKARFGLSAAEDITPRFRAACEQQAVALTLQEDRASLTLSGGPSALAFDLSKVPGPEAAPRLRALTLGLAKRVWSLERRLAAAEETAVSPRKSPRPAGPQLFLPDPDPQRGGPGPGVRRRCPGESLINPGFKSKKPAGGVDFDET

[4] = target: T3, cysteines in MDA-MB-231 and Ramos cells (Homo sapiens, UniProt O75521)
T3 sequence (O75521 39-394): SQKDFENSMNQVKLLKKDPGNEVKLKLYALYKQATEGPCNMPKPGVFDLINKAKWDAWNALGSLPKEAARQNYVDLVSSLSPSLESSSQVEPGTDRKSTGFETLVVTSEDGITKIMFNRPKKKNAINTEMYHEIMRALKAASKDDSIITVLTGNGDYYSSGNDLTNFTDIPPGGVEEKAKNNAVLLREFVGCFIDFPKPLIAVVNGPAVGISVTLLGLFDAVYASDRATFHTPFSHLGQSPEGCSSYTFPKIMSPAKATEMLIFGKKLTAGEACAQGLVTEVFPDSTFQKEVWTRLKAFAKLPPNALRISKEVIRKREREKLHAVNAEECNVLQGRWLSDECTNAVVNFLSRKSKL

[5] = target: cysteines in MDA-MB-231 and Ramos cells (Homo sapiens, UniProt Q16831)
Sequence of cysteines in MDA-MB-231 and Ramos cells (Homo sapiens, UniProt Q16831) (Q16831 whole entry): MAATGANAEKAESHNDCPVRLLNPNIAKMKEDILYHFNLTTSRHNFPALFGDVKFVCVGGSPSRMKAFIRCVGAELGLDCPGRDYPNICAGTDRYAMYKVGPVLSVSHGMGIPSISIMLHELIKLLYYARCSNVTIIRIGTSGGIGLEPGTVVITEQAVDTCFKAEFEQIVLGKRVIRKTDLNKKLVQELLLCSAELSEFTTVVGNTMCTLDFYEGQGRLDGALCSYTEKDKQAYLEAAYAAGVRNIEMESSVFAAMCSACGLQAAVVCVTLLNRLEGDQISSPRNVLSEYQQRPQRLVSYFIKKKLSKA

[6] = target: cysteines in MDA-MB-231 and Ramos cells (Homo sapiens, UniProt P04406)
Sequence of cysteines in MDA-MB-231 and Ramos cells (Homo sapiens, UniProt P04406) (P04406 whole entry): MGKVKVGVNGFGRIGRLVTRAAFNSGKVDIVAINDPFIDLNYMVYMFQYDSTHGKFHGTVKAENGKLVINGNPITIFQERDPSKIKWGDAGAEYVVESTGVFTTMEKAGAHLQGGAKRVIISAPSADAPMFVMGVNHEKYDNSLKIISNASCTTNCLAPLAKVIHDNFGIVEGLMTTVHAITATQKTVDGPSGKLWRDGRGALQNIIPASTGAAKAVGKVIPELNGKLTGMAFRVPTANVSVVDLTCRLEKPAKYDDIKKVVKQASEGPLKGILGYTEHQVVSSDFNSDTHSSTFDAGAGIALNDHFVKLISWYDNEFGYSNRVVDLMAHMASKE

[7] = target: cysteines in MDA-MB-231 and Ramos cells (Homo sapiens, UniProt P12268)
[8] = target: T4, cysteines in MDA-MB-231 and Ramos cells (Homo sapiens, UniProt Q99439)
T4 sequence (Q99439 1-309): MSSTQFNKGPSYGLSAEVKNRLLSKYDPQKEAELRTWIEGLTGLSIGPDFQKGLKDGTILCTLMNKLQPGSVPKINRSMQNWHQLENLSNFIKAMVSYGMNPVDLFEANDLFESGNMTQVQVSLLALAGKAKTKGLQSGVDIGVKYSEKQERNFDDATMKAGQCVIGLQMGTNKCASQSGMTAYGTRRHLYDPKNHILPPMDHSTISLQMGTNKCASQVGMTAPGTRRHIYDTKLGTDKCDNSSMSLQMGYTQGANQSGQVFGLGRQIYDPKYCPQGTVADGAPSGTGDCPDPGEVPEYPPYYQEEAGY

[9] = target: cysteines in MDA-MB-231 and Ramos cells (Homo sapiens, UniProt Q8TAQ2); conditions: for isoTOP-ABPP ratio Q8TAQ2_C145: 200 μM, insitu
Sequence of cysteines in MDA-MB-231 and Ramos cells (Homo sapiens, UniProt Q8TAQ2) (Q8TAQ2 whole entry): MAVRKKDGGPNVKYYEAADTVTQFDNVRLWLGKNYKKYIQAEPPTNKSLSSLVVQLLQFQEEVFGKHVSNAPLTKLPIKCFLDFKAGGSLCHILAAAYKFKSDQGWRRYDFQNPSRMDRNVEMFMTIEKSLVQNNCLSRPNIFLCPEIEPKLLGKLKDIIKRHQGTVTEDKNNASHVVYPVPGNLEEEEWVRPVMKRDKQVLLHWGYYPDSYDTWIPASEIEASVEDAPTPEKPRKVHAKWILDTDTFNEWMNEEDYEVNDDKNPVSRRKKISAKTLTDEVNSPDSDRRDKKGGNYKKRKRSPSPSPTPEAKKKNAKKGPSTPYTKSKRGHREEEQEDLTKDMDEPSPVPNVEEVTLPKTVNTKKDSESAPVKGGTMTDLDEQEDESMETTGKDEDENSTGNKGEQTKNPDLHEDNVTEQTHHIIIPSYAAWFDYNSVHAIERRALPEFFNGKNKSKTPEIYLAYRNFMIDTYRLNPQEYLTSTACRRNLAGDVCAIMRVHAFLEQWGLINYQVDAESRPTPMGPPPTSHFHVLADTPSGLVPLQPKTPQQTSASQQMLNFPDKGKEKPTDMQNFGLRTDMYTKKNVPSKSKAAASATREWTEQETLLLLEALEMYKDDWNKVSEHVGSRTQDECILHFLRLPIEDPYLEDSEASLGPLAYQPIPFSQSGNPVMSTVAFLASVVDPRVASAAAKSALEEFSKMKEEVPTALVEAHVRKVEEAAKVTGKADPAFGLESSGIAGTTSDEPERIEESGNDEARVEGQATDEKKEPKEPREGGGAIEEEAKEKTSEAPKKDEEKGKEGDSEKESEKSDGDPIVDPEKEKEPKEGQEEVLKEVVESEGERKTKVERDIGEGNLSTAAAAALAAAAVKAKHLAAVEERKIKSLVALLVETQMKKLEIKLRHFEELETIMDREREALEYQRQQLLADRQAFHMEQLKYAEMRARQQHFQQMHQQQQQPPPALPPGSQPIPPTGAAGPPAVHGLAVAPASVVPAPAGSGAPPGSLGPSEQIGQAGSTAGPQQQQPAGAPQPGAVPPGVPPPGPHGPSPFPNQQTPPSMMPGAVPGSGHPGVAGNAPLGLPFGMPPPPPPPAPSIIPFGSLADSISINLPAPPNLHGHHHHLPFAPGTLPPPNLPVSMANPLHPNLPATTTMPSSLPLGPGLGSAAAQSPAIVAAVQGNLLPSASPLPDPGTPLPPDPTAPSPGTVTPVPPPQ

[10] = target: T5, cysteines in MDA-MB-231 and Ramos cells (Homo sapiens, UniProt P51946); conditions: for isoTOP-ABPP ratio P51946_C244: 200 μM, insitu
T5 sequence (P51946 1-323): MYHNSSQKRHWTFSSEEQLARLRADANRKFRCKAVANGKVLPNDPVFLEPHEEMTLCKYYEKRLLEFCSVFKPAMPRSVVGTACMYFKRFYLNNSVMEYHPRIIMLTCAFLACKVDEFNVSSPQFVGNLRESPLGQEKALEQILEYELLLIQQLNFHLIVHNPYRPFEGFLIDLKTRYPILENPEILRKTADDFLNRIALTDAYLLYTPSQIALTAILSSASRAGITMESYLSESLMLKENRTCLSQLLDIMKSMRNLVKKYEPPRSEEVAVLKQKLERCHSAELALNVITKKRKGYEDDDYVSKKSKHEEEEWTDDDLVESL

Structure (SMILES) | isoTOP-ABPP ratio Q9NRG0_C55 ([1]; 200 μM, insitu, 231) | isoTOP-ABPP ratio P46734_C207 ([2]; 200 μM, insitu, 231) | isoTOP-ABPP ratio Q9BUH6_C180 ([3]; 200 μM, insitu, 231) | isoTOP-ABPP ratio O75521_C312 ([4]; 200 μM, insitu, 231) | isoTOP-ABPP ratio O75521_C380 ([4]; 200 μM, insitu, 231) | isoTOP-ABPP ratio Q16831_C162 ([5]; 200 μM, insitu, 231) | isoTOP-ABPP ratio P04406_C152 ([6]; 200 μM, insitu, 231) | isoTOP-ABPP ratio P12268_C140 ([7]; 200 μM, insitu, 231) | isoTOP-ABPP ratio Q99439_C164 ([8]; 200 μM, insitu, 231) | isoTOP-ABPP ratio P51946_C244 [10]; 231 | isoTOP-ABPP ratio P12268_C331 ([7]; 200 μM, insitu, 231) | isoTOP-ABPP ratio Q8TAQ2_C145 [9]; 231 | other results
COc1ccc(C2CC(c3cccs3)=NN2C(=O)CCl)cc1 (stereo not shown) [compound 4] | – | – | – | – | – | – | – | – | – | – | – | – | isoTOP-ABPP reactivity Q9NRG0_C55 CHRAC1 ([1]; 100 μM in situ 231): 20.0; isoTOP-ABPP reactivity P46734_C207 MAP2K3 ([2]; 100 μM in situ 231): 0.6; isoTOP-ABPP reactivity Q9BUH6_C180 C9orf142 ([3]; 100 μM in situ 231): 1.2; isoTOP-ABPP reactivity O75521_C312 ECI2 ([4]; 100 μM in situ 231): 1.0; isoTOP-ABPP reactivity O75521_C380 ECI2 ([4]; 100 μM in situ 231): 1.6; isoTOP-ABPP reactivity Q16831_C162 UPP1 ([5]; 100 μM in situ 231): 1.0; isoTOP-ABPP reactivity P04406_C152 GAPDH ([6]; 100 μM in situ 231): 1.6; isoTOP-ABPP reactivity P12268_C140 IMPDH2 ([7]; 100 μM in situ 231): 1.0; isoTOP-ABPP reactivity P12268_C331 IMPDH2 ([7]; 100 μM in situ 231): 4.6; isoTOP-ABPP reactivity Q99439_C164 CNN2 ([8]; 100 μM in situ 231): 1.5; isoTOP-ABPP reactivity Q8TAQ2_C145 SMARCC2 ([9]; 100 μM in situ 231): 3.1; isoTOP-ABPP reactivity P51946_C244 CCNH ([10]; 100 μM in situ 231): 5.3
O=C(CCl)N1CCN(S(=O)(=O)c2ccccc2F)CC1 [compound 10] | 2.7 | 0.8 | 3.8 | 5.0 | 4.8 | 7.3 | 1.0 | 0.7 | 1.2 | 1.7 | – | – | isoTOP-ABPP ratio P04406_C152 ([6]; 200 μM, insitu, ramos): 0.9; isoTOP-ABPP ratio P12268_C140 ([7]; 200 μM, insitu, ramos): 0.9; isoTOP-ABPP ratio P12268_C331 ([7]; 200 μM, insitu, ramos): 2.1; isoTOP-ABPP ratio Q99439_C164 ([8]; 200 μM, insitu, ramos): 1.3; isoTOP-ABPP ratio Q8TAQ2_C145 ([9]; ramos): 20.0
CC1CCc2ccccc2N1C(=O)CCl (stereo not shown) [compound 45] | 20.0 | 1.5 | 5.5 | 0.7 | 1.2 | 1.3 | 20.0 | 1.9 | 1.8 | 2.4 | 4.1 | 2.9 | –
Cc1ccc(C=C(C#N)C(=O)NCCN2CCOCC2)cc1 [compound 41] | 0.9 | 0.7 | 0.6 | – | 1.1 | 0.8 | 0.6 | 0.7 | 0.4 | 1.2 | 0.8 | 1.2 | –
C=CC(=O)Nc1cc(F)c(N2CCN(C(=O)OC(C)(C)C)CC2)c(F)c1 [compound 38] | 1.0 | 1.5 | 1.4 | 1.1 | 0.9 | 1.4 | 0.9 | 1.2 | 1.5 | 1.0 | 1.3 | 1.3 | –
O=C(CCl)NC(=O)NC12CC3CC(CC(C3)C1)C2 [compound 12] | 20.0 | 0.7 | 1.4 | 4.2 | 1.9 | 0.9 | 0.9 | 1.2 | 0.9 | 1.3 | – | – | –
O=C(CCl)NCCc1c[nH]c2ccccc12 [compound 13] | 1.2 | 0.8 | 1.1 | 0.7 | 1.0 | 1.0 | 0.9 | 0.7 | 0.9 | 1.0 | – | 1.1 | isoTOP-ABPP ratio P04406_C152 ([6]; 200 μM, insitu, ramos): 0.9; isoTOP-ABPP ratio P12268_C331 ([7]; 200 μM, insitu, ramos): 1.4; isoTOP-ABPP ratio Q99439_C164 ([8]; 200 μM, insitu, ramos): 1.3; isoTOP-ABPP ratio P51946_C244 ([10]; ramos): 1.2
O=C(CCl)N1CCC(Cc2ccccc2)CC1 [compound 9] | – | – | – | – | – | – | – | – | – | – | – | – | isoTOP-ABPP reactivity Q9NRG0_C55 CHRAC1 ([1]; 200 μM, insitu, 231): 2.9; isoTOP-ABPP reactivity P46734_C207 MAP2K3 ([2]; 200 μM, insitu, 231): 3.3; isoTOP-ABPP reactivity Q9BUH6_C180 C9orf142 ([3]; 200 μM, insitu, 231): 2.8; isoTOP-ABPP reactivity O75521_C312 ECI2 ([4]; 200 μM, insitu, 231): 0.5; isoTOP-ABPP reactivity O75521_C380 ECI2 ([4]; 200 μM, insitu, 231): 0.7; isoTOP-ABPP reactivity Q16831_C162 UPP1 ([5]; 200 μM, insitu, 231): 7.7; isoTOP-ABPP reactivity P04406_C152 GAPDH ([6]; 200 μM, insitu, 231): 1.7; isoTOP-ABPP reactivity P12268_C140 IMPDH2 ([7]; 200 μM, insitu, 231): 1.2; isoTOP-ABPP reactivity P12268_C331 IMPDH2 ([7]; 200 μM, insitu, 231): 1.3; isoTOP-ABPP reactivity Q99439_C164 CNN2 ([8]; 200 μM, insitu, 231): 4.7
